Results published in paper PMC3111189, “Bioactive Indole Derivatives from the South Pacific Marine Sponges Rhopaloeides odorabile and Hyrtios sp” (Marine Drugs, 2011).
Values joined by “and” are separate entries in the source; they are usually repeats but may differ in a detail not shown here. Equal values may be shown once. Read-outs that look alike come from different tables or passages of the source.

Legend:
[1] = Quantitative ORAC assay (fluorescein/AAPH); details: for fold less active than Trolox: ORAC assay, compared with Trolox; for ORAC FL relative ORAC value: fluorescein (FL) + AAPH, n = 3, Trolox = 1; for concentration displaying FL decay curve similar to Trolox: fluorescein fluorescence decay induced by AAPH, Figure 3
KB cells = assay: Cytotoxicity assay (MTS) on KB cells
Procedure: The human KB cell line was obtained from ECACC (Salisbury, UK) and grown in D-MEM medium supplemented with 10% fetal calf serum (Invitrogen), in the presence of penicillin, streptomycin and fungizone in a 75 cm^2 flask under 5% CO2. Cells were plated in 96-well tissue culture microplates at a density of 650 cells/well in 200 μL medium and treated 24 hrs later with compounds dissolved in DMSO using a Biomek 3000 automate (Beckman-Coulter). Controls received the same volume of DMSO (1% final volume).

bee venom PLA2 = bee venom PLA2 (Apis mellifera, UniProt P00630); assay: biochemical
Chain of bee venom PLA2 (P00630 34-167 limits assumed): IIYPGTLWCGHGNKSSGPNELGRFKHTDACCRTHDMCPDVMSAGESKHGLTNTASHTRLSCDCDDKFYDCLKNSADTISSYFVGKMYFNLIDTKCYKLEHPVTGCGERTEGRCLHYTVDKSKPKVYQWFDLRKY

SMILES | ORAC FL relative ORAC value [1] | IC50 (bee venom PLA2; n = 2, read-out: PLA2 IC50) | other results
C[N+](C)(C)[C@@H](Cc1c[nH]c2cc(Br)c(Br)cc12)C(=O)[O-] [Compound 9, 5,6-Dibromo-L-hypaphorine] | 0.22 relative Trolox equivalent and 0.22 ± 0.04 relative Trolox equivalent | 200 ± 10 µM | fold less active than Trolox [1]: 4 fold; concentration displaying FL decay curve similar to Trolox [1]: 24.2 µM; cytotoxicity towards KB cells (KB cells; at 10^−4 M, human KB cell line): did not show any cytotoxic activity
Cc1c(C)c2c(c(C)c1O)CCC(C)(C(=O)O)O2 (centres unmarked) [Trolox, reference compound] | 1 relative Trolox equivalent |  | 
COC(=O)C(=O)c1c[nH]c2ccccc12 [Compound 2, (1H-Indol-3-yl)oxoacetic acid methyl ester] |  | 1110 ± 330 µM | 
NCCc1c[nH]c2cc(Br)c(Br)cc12 [Compound 5, 5,6-Dibromotryptamine] |  | 620 ± 10 µM | 
CN[C@@H](Cc1c[nH]c2cc(Br)c(Br)cc12)C(=O)O [Compound 8, 5,6-Dibromoabrine] | 0.07 ± 0.01 relative Trolox equivalent | 300 ± 10 µM | 
C[C@H]1CC[C@H]2C(C)(C)CCC[C@]23Oc2ccc(O)cc2C[C@]13C [Compound 4, Aureol] | 0.29 relative Trolox equivalent and 0.29 ± 0.03 relative Trolox equivalent | 460 ± 20 µM | fold less active than Trolox [1]: 3 fold; concentration displaying FL decay curve similar to Trolox [1]: 15.5 µM; IC50 (KB cells; Homo sapiens, KB, 72 h, read-out: KB cells IC50 (50% inhibition of cell proliferation)): 5 µM
NC(=O)C(=O)c1c[nH]c2ccccc12 [Compound 1, (1H-Indol-3-yl)oxoacetamide] |  |  | IC50 (bee venom PLA2): 1170 ± 50 µM
CN(C)CCc1c[nH]c2cc(Br)c(Br)cc12 [Compound 7, N,N-Dimethyl-5,6-dibromotryptamine] | 0.06 ± 0.01 relative Trolox equivalent | 770 ± 50 µM | 
CNCCc1c[nH]c2cc(Br)c(Br)cc12 [Compound 6, N-Methyl-5,6-dibromotryptamine] |  | 330 ± 30 µM | 
O=Cc1c[nH]c2cc(Br)ccc12 [Compound 3, 6-Bromoindole-3-carbaldehyde] |  | 1270 ± 60 µM | 
